Results taken from patent US7423157B2, “Substituted benzimidazoles and their use for inducing apoptosis” (Basilea Pharmaceutica AG, priority 2004, dated 2008).

Assays:
[1] = system: MRC5; experiment: Hoechst 33342 nuclear staining, MRC5; format: cell-based; parameters: key: 0 = no activity, 1 = weak (<50% of cells), 2 = strong (>50% of cells); settings: MRC5, 48 h
Experimental: (§1) This assay is performed in 96 well tissue culture plates. Appropriate number of cells (adherent cells: 3-5*10^3, suspension cells: 8-10*10^3) are being seeded out in 80 μl complete medium. Adherent cells are incubated for 24 h for proper spreading out before addition of test compounds while suspension cells are immediately treated with test compounds after seeding out. The test compounds are added in 20 μl complete medium containing max 5% DMSO. The final compound concentrations in the assays are 10 μM, 3 μM, 1 μM and 0.3 μM, respectively. […] The assay plates are then further incubated for 30 minutes and subsequently analyzed with a standard inverted fluorescence microscope.
(§2) The readout allows the determination of the fraction of apoptotic nuclei as well as other morphological criteria specific for apoptosis as a function of the treatment. The following scores are used: 0 relating to no activity, 1 relating to weak activity comprising less than 50% of the cells and score 2 relating to strong activity comprising more than 50% of the cells.

[2] = system: PBLs; experiment: Hoechst 33342 nuclear staining, PBLs; format: cell-based; parameters: key: 0 = no activity, 1 = weak (<50% of cells), 2 = strong (>50% of cells); settings: 48 h
Experimental: as §1, §2

[3] = system: Jurkat; experiment: MTS proliferation assay, Jurkat; format: cell-based, human; settings: 72 h incubation
Experimental: (§3) The assay is performed in 96 well tissue culture plates. The cells (range: 1.5*10^3-10^4) are seeded out in 80 μl complete medium 24 h prior to compound treatment. The test compounds are added in 20 μl complete medium containing max 5% DMSO. The final compound concentrations in the assays are 10 μM, 3 μM, 1 μM and 0.3 μM, respectively. The assay plates are incubated for 72 h at culture conditions. The MTS reagent is prepared according to the manufacturer's protocol (Promega G1111). 20 μl MTS reagent are added to each well, the assay plates are quickly spun and incubated for another 3 h at culture conditions. Subsequently, the plates are shortly shaked and absorption measured with a microplate-reader at 492 nm.

[4] = system: Jurkat; experiment: Hoechst 33342 nuclear staining, Jurkat; format: cell-based, human; settings: 48 h
Experimental: as §1, §2

[5] = system: H460; experiment: Hoechst 33342 nuclear staining, H460; format: cell-based, human; settings: H460, 48 h
Experimental: as §1, §2

[6] = system: Jily; experiment: Hoechst 33342 nuclear staining, Jily; format: cell-based; settings: 48 h
Experimental: as §1, §2

[7] = system: HeLa; experiment: MTS proliferation assay, HeLa; format: cell-based, human; settings: 72 h incubation
Experimental: as §3

[8] = system: HeLa; experiment: Hoechst 33342 nuclear staining, HeLa; format: cell-based, human; settings: 48 h
Experimental: as §1, §2

Structure (SMILES)	Hoechst 33342 nuclear staining score ([1]; conc. 0.3 (μM))	Hoechst 33342 nuclear staining score ([1]; conc. 1 (μM))	Hoechst 33342 nuclear staining score ([1]; conc. 3 (μM))	Hoechst 33342 nuclear staining score ([1]; conc. 10 (μM))	Hoechst 33342 nuclear staining score ([2]; conc. 0.3 (μM))	Hoechst 33342 nuclear staining score ([2]; conc. 1 (μM))	Hoechst 33342 nuclear staining score ([2]; conc. 3 (μM))	Hoechst 33342 nuclear staining score ([2]; conc. 10 (μM))	Hoechst 33342 nuclear staining score ([4]; conc. 0.3 (μM))	Hoechst 33342 nuclear staining score ([4]; conc. 1 (μM))	Hoechst 33342 nuclear staining score ([4]; conc. 3 (μM))	Hoechst 33342 nuclear staining score ([4]; conc. 10 (μM))	Hoechst 33342 nuclear staining score ([5]; conc. 0.3 (μM))	Hoechst 33342 nuclear staining score ([5]; conc. 1 (μM))	Hoechst 33342 nuclear staining score ([5]; conc. 3 (μM))	Hoechst 33342 nuclear staining score ([5]; conc. 10 (μM))	Hoechst 33342 nuclear staining score ([6]; conc. 0.3 (μM))	Hoechst 33342 nuclear staining score ([6]; conc. 1 (μM))	Hoechst 33342 nuclear staining score ([6]; conc. 3 (μM))	Hoechst 33342 nuclear staining score ([6]; conc. 10 (μM))	further results
Cc1ccc(C(=O)Cn2c(-n3ncnc3N)nc3ccccc32)cc1C [Example 1, 3-Amino-2-(1-[3,4-dimethylphenylcarbonylmethyl]benzimidazol-2-yl)-1,2,4-triazole]	1 (1 relating to weak activity comprising less than 50% of the cells)	2 (score 2 relating to strong activity comprising more than 50% of the cells)	2 (score 2 relating to strong activity comprising more than 50% of the cells)	2 (score 2 relating to strong activity comprising more than 50% of the cells)	0	0	0	0	2 (score 2 relating to strong activity comprising more than 50% of the cells)	2 (score 2 relating to strong activity comprising more than 50% of the cells)	2 (score 2 relating to strong activity comprising more than 50% of the cells)	2 (score 2 relating to strong activity comprising more than 50% of the cells)	2 (score 2 relating to strong activity comprising more than 50% of the cells)	2 (score 2 relating to strong activity comprising more than 50% of the cells)	2 (score 2 relating to strong activity comprising more than 50% of the cells)	2 (score 2 relating to strong activity comprising more than 50% of the cells)	2 (score 2 relating to strong activity comprising more than 50% of the cells)	2 (score 2 relating to strong activity comprising more than 50% of the cells)	2 (score 2 relating to strong activity comprising more than 50% of the cells)	2 (score 2 relating to strong activity comprising more than 50% of the cells)	IC50 ([3]; Homo sapiens): < 100 nM; IC50 ([7]; Homo sapiens): < 100 nM; Hoechst 33342 nuclear staining score ([8]; conc. 0.3 (μM)): 2 (score 2 relating to strong activity comprising more than 50% of the cells); Hoechst 33342 nuclear staining score ([8]; conc. 1 (μM)): 2 (score 2 relating to strong activity comprising more than 50% of the cells); Hoechst 33342 nuclear staining score ([8]; conc. 3 (μM)): 2 (score 2 relating to strong activity comprising more than 50% of the cells); Hoechst 33342 nuclear staining score ([8]; conc. 10 (μM)): 2 (score 2 relating to strong activity comprising more than 50% of the cells)
COc1cccc(/C=C/C(=O)Cn2c(-n3ncnc3N)nc3ccccc32)c1 [Example 9]	0	0	0	0	0	0	0	2 (score 2 relating to strong activity comprising more than 50% of the cells)	0	0	0	2 (score 2 relating to strong activity comprising more than 50% of the cells)	0	0	0	2 (score 2 relating to strong activity comprising more than 50% of the cells)	0	0	0	2 (score 2 relating to strong activity comprising more than 50% of the cells)	IC50 [3]: > 1000 nM; IC50 [7]: > 1000 nM; Hoechst 33342 nuclear staining score ([8]; conc. 0.3 (μM)): 0; Hoechst 33342 nuclear staining score ([8]; conc. 1 (μM)): 0; Hoechst 33342 nuclear staining score ([8]; conc. 3 (μM)): 0; Hoechst 33342 nuclear staining score ([8]; conc. 10 (μM)): 2 (score 2 relating to strong activity comprising more than 50% of the cells)
